Assay results reported in publication PMC6029141, “Population Pharmacokinetics of Vancomycin in Chinese ICU Neonates: Initial Dosage Recommendations” (Frontiers in Pharmacology, 2018).
Like-named read-outs stand apart in the source and are kept apart here.

Experiments:
[1] = cited from earlier work
From the text: The maximum a posteriori Bayesian estimation method has already been used to support vancomycin dosing decisions in adults (Deng et al., [2013]; Jacqz-Aigrain et al., [2015]) and children (Le et al., [2014]). To obtain accurate estimation with this method for individualized therapy, it is crucial that reliable population pharmacokinetic characteristics are known for the target patients. […] (H ...

[2] = Population pharmacokinetic modeling of vancomycin (NONMEM, FOCE-I, one-compartment, first-order elimination); conditions: for θ4, volume of distribution V / θ5, exponent of body weight on V / θ1, clearance CL: final model
Method: Chinese neonates who received vancomycin in the neonatal ICU at Shanghai Children's Hospital (Shanghai, China) between January 2013 and December 2016 were enrolled. Patients included in this study were neonates with PMA ≤ 48 weeks for preterm neonates and with postnatal age (PNA) ≤ 28 days for term neonates. All patients were treated with vancomycin for at least 3 days, and at least one vancomycin concentration was assayed. Patients with extracorporeal membrane oxygenation or continuous renal replacement therapy were excluded from the current study. The following information was retrospectively collected from electronic medical records: gestational age (GA), PMA, PNA, body weight (WT), dosing history and concentration of vancomycin, serum creatinine (Scr) levels, clinical laboratory tests of other renal and hepatic functions, and co-administered medications.
The dose of vancomycin (Vancocin, Lilly, S.A, Suzhou, China) was 10–15 mg/kg, which was administrated every 8 h (q8h) or every 12 h (q12h) with a 2-h infusion, in accordance with local protocols. Blood samples were collected 1 h after completion of drug infusion (peak concentration) or half an hour before the start of vancomycin administration (trough concentration) for each patient. Trough and peak concentrations were obtained after at least four repeated doses. Potential outlier data points (observations) were identified by employing conditional weighted residual (CWRES) results outside a range of ± 6 (Byon et al., [2013]).
Population pharmacokinetic modeling was performed using the NONMEM program (Version 7.4; Icon Inc, PA, USA) compiled with gFortran (Version 4.9.2; http://www.gfortran.org). R (Version 3.3.1; http://www.r-project.org) and the Xpose package (Version 4.5.3; http://xpose.sourceforge.net) were used for visual diagnosis. The first-order conditional estimation method with η–ε interaction (FOCE-I) was used throughout the model-building procedure (Wählby et al., [2001]).
The vancomycin concentration data were fitted by the one or two compartment with a first-order elimination model. NONMEM subroutines were specified as ADVAN1-TRANS2 or ADVAN3-TRANS4, respectively.
An exponential model (Equation 1) was used to account for inter-individual variability (IIV):
Residual unexplained variability was tested by an additive model (Equation 2), exponential model (Equation 3), or a combined additive and exponential model (Equation 4):
Four different models based on allometric scaling were tested using Equation (5): (5) Pi= TV(P)×(COV/COVmedian)^θ×MF
The robustness of the model was assessed using a nonparametric bootstrap (Ette, [1997]), with repetition of 2000 NONMEM runs of the final model. The bootstrap median parameter values and the percentile bootstrap 95% confidence intervals were compared with the respective values estimated from the final model.

[3] = Vancomycin trough and peak concentrations, fluorescence polarization immunoassay; assay type: in vivo, Chinese neonates; conditions: after at least four doses, 10–15 mg/kg q8h or q12h, FPIA
Method: Concentrations of vancomycin were determined using the fluorescence polarization immunoassay with an ARCHITECT i2000SR (Abbott Laboratories, Chicago, IL, USA). The limit of detection was 1 mg/L, and the calibration range of this assay was 3 to 50 mg/L. The intra-day and inter-day coefficients of variation (CVs) were all < 20%.

[4] = Model III, WT-dependent exponent model
[5] = Model IV, age-dependent exponent model

CN[C@H](CC(C)C)C(=O)N[C@H]1C(=O)N[C@@H](CC(N)=O)C(=O)N[C@H]2C(=O)N[C@H]3C(=O)N[C@H](C(=O)N[C@H](C(=O)O)c4cc(O)cc(O)c4-c4cc3ccc4O)[C@H](O)c3ccc(c(Cl)c3)Oc3cc2cc(c3O[C@@H]2O[C@H](CO)[C@@H](O)[C@H](O)[C@H]2O[C@H]2C[C@](C)(N)[C@H](O)[C@H](C)O2)Oc2ccc(cc2Cl)[C@H]1O [vancomycin]
clearance (CL) ([1]; adult Caucasian patients, first of two values, ref Guay et al., [1993], Sánchez et al., [2010]): 4.03 ± 1.7 L/h
clearance (CL) ([1]; adult Caucasian patients, second of two values, ref Guay et al., [1993], Sánchez et al., [2010]): 5.83 ± 2.39 L/h
clearance (CL) ([1]; adult Chinese patients, second of two values, ref He et al., [2014], Lin et al., [2015]): 6.06 ± 2.46 L/h
average clearance across all three populations ([1]; neonatal patient with weight of 3 kg and PMA of 40 weeks, Caucasian, Japanese, Malaysian neonates, ref Seay et al., [1994] to Lo et al., [2010] (b5)): 0.08 to 0.50 L/h
k, exponent for body weight (RSE%) ([2]; Model I, simple exponent model): 1.57 (10.9%)
CLp typical value of apparent clearance (RSE%) ([2]; Model I, simple exponent model, MF = 1): 0.319 (5.1%) L/h
Hill (RSE%) ([2]; Model II, maturation model): 4.45 (105%)
TM50, age at which clearance maturation reaches 50% of that of adults (RSE%) ([2]; Model II, maturation model): 46.9 (102%)
CLp typical value of apparent clearance (RSE%) ([2]; Model II, maturation model, k fixed 0.75): 0.911 (235%) L/h
k50, body weight at which there is a 50 % decrease in the kmax (RSE%) ([2]; Model III): 12.7 (53.1%)
kmax, maximum decrease of the exponent (RSE%) ([2]; Model III): 1.08 (25%)
θ0, exponent at a theoretical WT of 0 kg (RSE%) ([2]; Model III): 1.57 (10.9%)
CLp typical value of apparent clearance (RSE%) [2, 4]: 0.319 (5.1%) L/h
Hill (RSE%) [2, 4]: 23.6 (17.2%)
k50, age at which there is a 50 % decrease in the kmax (RSE%) ([2]; Model IV): 62.3 (22%)
kmax, maximum decrease of the exponent (RSE%) ([2]; Model IV): 1.08 (25%)
θ0, exponent at age at birth (RSE%) ([2]; Model IV): 1.57 (10.9%)
CLp typical value of apparent clearance (RSE%) [2, 5]: 0.319 (5.1%) L/h
Hill (RSE%) [2, 5]: 60.7 (23.4%)
θ4, volume of distribution V ([2]; NONMEM estimate, WT 2.9 kg): 2.63 L
θ5, exponent of body weight on V ([2]; NONMEM estimate, [WT(kg)/2.9]^θ5): 1.05
θ1, clearance CL ([2]; NONMEM estimate, typical neonate WT 2.9 kg, Scr 23.3 μmol/L): 0.309 L/h
θ1, clearance CL ([2]; bootstrap median, 2000 runs): 0.308 L/h
θ4, volume of distribution V ([2]; bootstrap median, 2000 runs): 2.62 L
θ5, exponent of body weight on V ([2]; bootstrap median, 2000 runs): 1.06
Peak concentration, median (range) ([3]; 1 h after completion of 2-h infusion, 90 peak samples): 20.3 (4.09–51.9) mg/L
Peak concentration ([3]; column 'Modeling group' (value ± spread), 1 h after completion of 2-h infusion, 90 peak samples): 22.3 ± 11.0 mg/L
Trough concentration ([3]; column 'Modeling group' (value ± spread), half an hour before administration, 2-h infusion, 75 trough samples, 80 neonates): 11.2 ± 7.92 mg/L
Trough concentration, median (range) ([3]; half an hour before administration, 2-h infusion, 75 trough samples): 9.15 (3.14–42.9) mg/L
